Test results from patent publication US7759337B2, “Phthalazine compounds and methods of use” (Amgen Inc., priority 2005, dated 2010).
pIC50: −log10 of the molar value.

System: production of TNF by monocytes activated with bacterial lipopolysaccharide (LPS)
Assay: Lipopolysaccharide-activated monocyte TNF production assay
Assay type: cell-based
Conditions: Homo sapiens; whole blood monocyte assay (LPS induced TNF release)
Procedure, shortened: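 Adherent human PBMC-derived monocytes preincubated 60 min with nine two-fold compound dilutions, then stimulated with E. coli K532 LPS (30 ng/mL in the added medium) for 4 h at 37 °C. Supernatant TNF measured by sandwich ELISA; IC50 is the compound concentration halving TNF production, from second-order polynomial fits.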

| Structure (SMILES) | pIC50 |
| --- | --- |
| Cc1ccc(C(=O)NC2CC2)cc1-c1ccc2c(N(C)C3CCCCC3)nncc2c1 [Example 289, 3-{1-[cyclohexyl(methyl)amino]phthalazin-6-yl}-N-cyclopropyl-4-methylbenzamide] | ≥ 5.30 |
| Cc1ccc(C(=O)NC2CC2)cc1-c1ccc2c(N(C)C(C)C)nncc2c1 [Example 290, N-cyclopropyl-3-{1-[isopropyl(methyl)amino]phthalazin-6-yl}-4-methylbenzamide] | ≥ 5.30 |
| Cc1ccc(C(N)=O)cc1-c1ccc2c(N(C)C3CCCCC3)nncc2c1 [Example 291, 3-{1-[cyclohexyl(methyl)amino]phthalazin-6-yl}-4-methylbenzamide] | ≥ 5.30 |
| Cc1ccc(C(N)=O)cc1-c1ccc2c(N(C)C(C)C)nncc2c1 [Example 292, 3-{1-[isopropyl(methyl)amino]phthalazin-6-yl}-4-methylbenzamide] | ≥ 5.30 |
| Cc1ccc(C(=O)NC2CC2)cc1-c1ccc2c(N3CCC[C@H]3C(C)C)nncc2c1 [Example 293, N-cyclopropyl-3-{1-[(2S)-2-isopropylpyrrolidin-1-yl]phthalazin-6-yl}-4-methylbenzamide] | ≥ 5.30 |
| Cc1ccc(C(N)=O)cc1-c1ccc2c(N3CCn4c(nnc4C(F)(F)F)C3)nncc2c1 [Example 294, 4-methyl-3-{1-[3-(trifluoromethyl)-5,6-dihydro[1,2,4]triazolo[4,3-a]pyrazin-7(8H)-yl]phthalazin-6-yl}benzamide] | ≥ 5.30 |
| Cc1ccc(C(=O)NC2CC2)cc1-c1ccc2c(N3CCC[C@@H]3C)nncc2c1 [Example 295, N-cyclopropyl-4-methyl-3-{1-[(2S)-2-methylpyrrolidin-1-yl]phthalazin-6-yl}benzamide] | ≥ 5.30 |
| Cc1ccc(C(=O)NC2CC2)cc1-c1ccc2c(N3CCC[C@H]3C)nncc2c1 [Example 296, N-cyclopropyl-4-methyl-3-{1-[(2R)-2-methylpyrrolidin-1-yl]phthalazin-6-yl}benzamide] | ≥ 5.30 |
| Cc1ccc(C(=O)NC2CC2)cc1-c1ccc2c(NC[C@H]3CCCO3)nncc2c1 [Example 297, N-cyclopropyl-4-methyl-3-(1-{[(2R)-tetrahydrofuran-2-ylmethyl]amino}phthalazin-6-yl)benzamide] | ≥ 5.30 |
| CC[C@H](C)Nc1nncc2cc(-c3cc(C(=O)NC4CC4)ccc3C)ccc12 [Example 298, N-cyclopropyl-4-methyl-3-(1-{[(1S)-1-methylpropyl]amino}phthalazin-6-yl)benzamide] | ≥ 5.30 |
| Cc1ccccc1Oc1nncc2cc(-c3cc(C(N)=O)ccc3C)ccc12 [Example 299, 4-methyl-3-[1-(2-methylphenoxy)phthalazin-6-yl]benzamide] | ≥ 5.30 |
| Cc1ccc(C(N)=O)cc1-c1ccc2c(Oc3cccnc3C)nncc2c1 [Example 300, 4-methyl-3-{1-[(2-methylpyridin-3-yl)oxy]phthalazin-6-yl}benzamide] | ≥ 5.30 |
| Cc1ccc(C(N)=O)cc1-c1ccc2c(Oc3ccc(F)cc3)nncc2c1 [Example 301, 3-[1-(4-fluorophenoxy)phthalazin-6-yl]-4-methylbenzamide] | ≥ 5.30 |
| CC[C@H](C)Oc1nncc2cc(-c3cc(C(=O)NC4CC4)ccc3C)ccc12 [Example 302, N-cyclopropyl-4-methyl-3-(1-{[(1S)-1-methylpropyl]oxy}phthalazin-6-yl)benzamide] | ≥ 5.30 |
| CC[C@H](C)Nc1nncc2cc(-c3cc(C(N)=O)ccc3C)ccc12 [Example 303, 4-methyl-3-(1-{[(1S)-1-methylpropyl]amino}phthalazin-6-yl)benzamide] | ≥ 5.30 |
| Cc1ccc(C(N)=O)cc1-c1ccc2c(Oc3ccc(F)cc3F)nncc2c1 [Example 304, 3-[1-(2,4-difluorophenoxy)phthalazin-6-yl]-4-methylbenzamide] | ≥ 5.30 |
| Cc1cc(F)ccc1Oc1nncc2cc(-c3cc(C(=O)NC4CC4)ccc3C)ccc12 [Example 305, N-cyclopropyl-3-[1-(4-fluoro-2-methylphenoxy)phthalazin-6-yl]-4-methylbenzamide] | ≥ 5.30 |
| COc1ccccc1Oc1nncc2cc(-c3cc(C(N)=O)ccc3C)ccc12 [Example 306, 3-[1-(2-methoxyphenoxy)phthalazin-6-yl]-4-methylbenzamide] | ≥ 5.30 |
| Cc1ccc(C(N)=O)cc1-c1ccc2c(Oc3cccc(Cl)c3)nncc2c1 [Example 307, 3-[1-(3-chlorophenoxy)phthalazin-6-yl]-4-methylbenzamide] | ≥ 5.30 |
| Cc1ccc(C(=O)NC2CC2)cc1-c1ccc2c(Oc3cccnc3C)nncc2c1 [Example 308, N-cyclopropyl-4-methyl-3-{1-[(2-methylpyridin-3-yl)oxy]phthalazin-6-yl}benzamide] | ≥ 5.30 |
| Cc1ccc(C(=O)NC2CC2)cc1-c1ccc2c(NC[C@@H]3CCCO3)nncc2c1 [Example 309, N-cyclopropyl-4-methyl-3-(1-{[(2S)-tetrahydrofuran-2-ylmethyl]amino}phthalazin-6-yl)benzamide] | ≥ 5.30 |
| Cc1ccc(C(=O)NC2CC2)cc1-c1ccc2c(NCCCN3CCCC3=O)nncc2c1 [Example 310, N-cyclopropyl-4-methyl-3-(1-{[3-(2-oxopyrrolidin-1-yl)propyl]amino}phthalazin-6-yl)benzamide] | ≥ 5.30 |

| Structure (SMILES) | pIC50 |
| --- | --- |
| Cc1ccc(C(N)=O)cc1-c1ccc2c(OC3CCCCC3)nncc2c1 [Example 311, 3-[1-(cyclohexyloxy)phthalazin-6-yl]-4-methylbenzamide] | ≥ 5.30 |
| Cc1ccc(C(=O)NC2CC2)cc1-c1ccc2c(NC3CCC(O)CC3)nncc2c1 (stereo not shown) [Example 312, N-cyclopropyl-3-{1-[(4-hydroxycyclohexyl)amino]phthalazin-6-yl}-4-methylbenzamide] | ≥ 5.30 |
| CC[C@@H](C)Nc1nncc2cc(-c3cc(C(=O)NC4CC4)ccc3C)ccc12 [Example 314, N-cyclopropyl-4-methyl-3-(1-{[(1R)-1-methylpropyl]amino}phthalazin-6-yl)benzamide] | ≥ 5.30 |
| Cc1ccc(C(N)=O)cc1-c1ccc2c(OCC(C)(C)C)nncc2c1 [Example 315, 4-methyl-3-[1-(neopentyloxy)phthalazin-6-yl]benzamide] | ≥ 5.30 |
| Cc1ccc(C(N)=O)cc1-c1ccc2c(OC3CCCN(C)C3)nncc2c1 (stereo not shown) [Example 316, 4-methyl-3-{1-[(1-methylpiperidin-3-yl)oxy]phthalazin-6-yl}benzamide] | ≥ 5.30 |
| Cc1ccc(C(=O)NC2CC2)cc1-c1ccc2c(OC3CCCN(C)C3)nncc2c1 (stereo not shown) [Example 317, N-cyclopropyl-4-methyl-3-{1-[(1-methylpiperidin-3-yl)oxy]phthalazin-6-yl}benzamide] | ≥ 5.30 |
| Cc1ccccc1Oc1nncc2cc(-c3c(C)ccc4c(NC5CC5)noc34)ccc12 [Example 318, N-cyclopropyl-6-methyl-7-[1-(2-methylphenoxy)phthalazin-6-yl]-1,2-benzisoxazol-3-amine] | ≥ 5.30 |
| Cc1ccc(C(=O)NC2CC2)cc1-c1ccc2c(OC3CCN(C)CC3)nncc2c1 [Example 319, N-cyclopropyl-4-methyl-3-{1-[(1-methylpiperidin-4-yl)oxy]phthalazin-6-yl}benzamide] | ≥ 5.30 |
| Cc1cc(F)ccc1Oc1nncc2cc(-c3cc(C(N)=O)ccc3C)ccc12 [Example 320, 3-[1-(4-fluoro-2-methylphenoxy)phthalazin-6-yl]-4-methylbenzamide] | ≥ 5.30 |
| Cc1ccc(Oc2nncc3cc(-c4cc(C(N)=O)ccc4C)ccc23)c(C)c1 [Example 321, 3-[1-(2,4-dimethylphenoxy)phthalazin-6-yl]-4-methylbenzamide] | ≥ 5.30 |
| CC[C@H](C)Oc1nncc2cc(-c3cc(C(N)=O)ccc3C)ccc12 [Example 322, 4-methyl-3-(1-{[(1S)-1-methylpropyl]oxy}phthalazin-6-yl)benzamide] | ≥ 5.30 |
| Cc1ccc(C(N)=O)cc1-c1ccc2c(NC3CCCC3)nncc2c1 [Example 323, 3-[1-(cyclopentylamino)phthalazin-6-yl]-4-methylbenzamide] | ≥ 5.30 |
| CC[C@@H](C)Oc1nncc2cc(-c3cc(C(N)=O)ccc3C)ccc12 [Example 324, 4-methyl-3-(1-{[(1R)-1-methylpropyl]oxy}phthalazin-6-yl)benzamide] | ≥ 5.30 |
| Cc1ccc(C(=O)NC2CC2)cc1-c1ccc2c(NC3CCCC3)nncc2c1 [Example 325, 3-[1-(cyclopentylamino)phthalazin-6-yl]-N-cyclopropyl-4-methylbenzamide] | ≥ 5.30 |
| Cc1ccc(C(=O)NC2CC2)cc1-c1ccc2c(OCC(C)(C)C)nncc2c1 [Example 326, N-cyclopropyl-4-methyl-3-[1-(neopentyloxy)phthalazin-6-yl]benzamide] | ≥ 5.30 |
| Cc1ccc(C(=O)NC2CC2)cc1-c1ccc2c(NC(C)(C)C)nncc2c1 [Example 327, 3-[1-(tert-butylamino)phthalazin-6-yl]-N-cyclopropyl-4-methylbenzamide] | ≥ 5.30 |
| CC[C@@H](C)Oc1nncc2cc(-c3cc(C(=O)NC4CC4)ccc3C)ccc12 [Example 328, N-cyclopropyl-4-methyl-3-(1-{[(1R)-1-methylpropyl]oxy}phthalazin-6-yl)benzamide] | ≥ 5.30 |
| Cc1ccc(C(=O)NC2CC2)cc1-c1ccc2c(NC3CCOCC3)nncc2c1 [Example 329, N-cyclopropyl-4-methyl-3-[1-(tetrahydro-2H-pyran-4-ylamino)phthalazin-6-yl]benzamide] | ≥ 5.30 |
| CNc1noc2c(-c3ccc4c(O[C@@H](C)COC)nncc4c3)c(C)ccc12 [Example 330, N,6-dimethyl-7-(1-(((1S)-1-methyl-2-(methyloxy)ethyl)oxy)-6-phthalazinyl)-1,2-benzisoxazol-3-amine] | ≥ 5.30 |
| CNc1noc2c(-c3ccc4c(OC(C)C)nncc4c3)c(C)ccc12 [Example 331, N,6-dimethyl-7-(1-((1-methylethyl)oxy)-6-phthalazinyl)-1,2-benzisoxazol-3-amine] | ≥ 5.30 |
| Cc1ccc(Oc2ccc3c(-c4ccccc4C)nncc3c2)cc1 [Example 332, 6-(4-methylphenoxy)-1-(2-methylphenyl)phthalazine] | ≥ 5.30 |
